# Experimental data from patent US20110065749A1, “METHOD AND PHARMACEUTICAL COMPOSITION FOR TREATMENT OF MENTAL DISORDERS” (ACTIVE CO. LTD., priority 2008, published 2011).
# Structures can show the parent of a compound that is named as a salt.
# How the values were obtained:
# Format in all cases: in vivo, human
# Alcoholism = experiment: Case 6: alcoholism patient; conditions: before Cephadol
# Excerpt: Case 6: Alcoholism Patient was a office worker, who was drinking 1 to 2 liters of beer and 3 to 5 glasses of distilled spirit or whisky with water every day. They were drinking alcohol in daytime on Sundays, and suffering from a complication of liver dysfunction.
# [1] = tested on: manic state of bipolar I disorder; experiment: Case 3: manic-depressive illness patient; conditions: 1,200 mg, before Cephadol
# Method: Case 3: Manic-Depressive Illness Patient was a person, who had continuously been in a manic state of bipolar I disorder for over one month. An antiepileptic drug, or 1,200 mg of Limas®, was ineffective. Antipsychotic drugs were not usable due to significant side effects. […] When they discontinued the administration of Cephadol®, the manic state appeared after 5 days.
# Fibromyalgia [2] = experiment: Case 18: fibromyalgia (4) patient; conditions: before Cephadol
# Excerpt: Case 18: Fibromyalgia (4)
# A person (housewife) is a patient with depression, having received regular medical treatment since seven years ago. […] However, a diagnosis with autoimmune disease or inflammatory disease was negative from their blood test. Due to back pain and fingertip pain, they were unable to make household work, and it was painful for them to hold even a light object by hand. They had pain at 15 points among the 18 tender points of the whole body, and was diagnosed with fibromyalgia. […] They had to stay in bed all day long, and such a condition lasted for the long term.
# Fibromyalgia [3] = experiment: Case 16: fibromyalgia (2) patient; conditions: before Cephadol
# Excerpt: […] There were persistent systemic malaise, lassitude, depressed mood, sleeplessness, neck stiffness and systemic pain. Their score of depression on Hamilton D scale was 25 to 28. No hematological abnormality was detected. As a result of overall judgment based on examinations including a tender point examination, they were diagnosed as having fibromyalgia. They were unresponsive to tricyclic or tetracyclic antidepressants, SSRIs, SNRIs, and Moclobemide. Then, they continued the treatment with 60 mg/day fluoxetine. […] It was concluded that the onset of their depression was due to the systemic pain, and the depression was improved by the drastic improvement of the systemic pain.
# depression = experiment: Case 9: depressed symptoms patient, HAMD; conditions: 40 mg, before Cephadol
# Excerpt: For evaluation of the state of depression, for example, Hamilton's rating scale for depression (HAMD) is available. The HAMD was developed by Max Hamilton in 1960 for the purpose of measuring the severity of a patient diagnosed with depression (Hamilton, M., Journal of Neurology, Neurosurgery & Psychiatry, 23-56-62 (1960) and Hamilton, M., “Development of rating scale for primary depressive illness”, British Journal of Social and Clinical Psychology, 6: 278-296 (1967)). In view of its high usefulness, it is a representative scale of evaluation for depression, widely used in clinical researches and practices. The 17 item version is used for clinical trials of antidepressants in Japan, whereas the 21 item version and the 24 item version are used in Europe or other countries.
# When the severity is calculated using Hamilton's rating scale for depression (HAMD), each item is evaluated with three grades of 0-2, or five grades of 0-4. For example, the case is diagnosed as severe where the point is 20 or higher and, as the point decreases, the symptom is diagnosed as being improved.
# Case 9: Depressed Symptoms
# Administration to the patient of 75 mg/day Cephadol® reduced the HAMD score from 20 points to 7 points after 3 days.
# Bulimia = experiment: Case 8: bulimia (2) patient; conditions: 40 mg
# Excerpt: Patient was a person, who had been suffering from bulimia. The bulimia persisted even after their marriage and childbearing.
# Fibromyalgia [4] = experiment: Case 15: fibromyalgia (1) patient; conditions: maximum doses, three years, before Cephadol
# Method: They then visited the inventor's clinic. When the inventor started the treatment with 75 mg/day Cephadol®, systemic pain of the patient was improved in two days. […] As a result, they became able to perform usual household work, go outside, and further make a trip.
# Alzheimer-Type Dementia = experiment: Case 4: Alzheimer-type dementia patient
# Excerpt: Case 4: Alzheimer-Type Dementia
compound,measurement,setting,value
N#CN [Cyanamide],efficacy of earlier drugs on alcoholism,Alcoholism,without any efficacy
O=C([O-])[O-].[Li+].[Li+] [Limas®],efficacy on manic state,[1],ineffective
CCN(CC)C(=O)C1(c2ccccc2)CC1CN (stereo not shown) [Milnaciplan],back pain,Fibromyalgia [2],rather deteriorated their back pain
O=C(NCCN1CCOCC1)c1ccc(Cl)cc1 [Moclobemide],response to earlier drugs,Fibromyalgia [3],unresponsive
"Fc1ccc([C@@H]2CCNC[C@H]2COc2ccc3c(c2)OCO3)cc1 [Paxil®, paroxetine]",depression,depression,without any improvement
CNCCC(Oc1ccc(C(F)(F)F)cc1)c1ccccc1.Cl (stereo not shown) [Prozac®],bulimia,Bulimia; before Cephadol,slightly improved the bulimia
same,frequency of overeating and emesis,Bulimia; previously two to three times a day,reduced to once daily
CN(C)CCC=C1c2ccccc2CCc2ccccc21 [Triptanol],response of fibromyalgia to earlier medicines,Fibromyalgia [4],without any improvement
COc1cc2c(cc1OC)C(=O)C(CC1CCN(Cc3ccccc3)CC1)C2 (stereo not shown) [donepezil hydrochloride],dementia,Alzheimer-Type Dementia; donepezil hydrochloride together with 50 mg Cephadol before sleeping,significant improvement of the dementia
same,side effect that made treatment difficult,Alzheimer-Type Dementia; donepezil hydrochloride without Cephadol,excitatory side effect
